This note sets out measurements from ChEMBL document CHEMBL1135763, “Discovery of aminothiazole inhibitors of cyclin-dependent kinase 2: synthesis, X-ray crystallographic analysis, and biological activities” (J Med Chem, 2002).

The target of assay [1] is Cyclin-dependent kinase 2/cyclin E (Homo sapiens, UniProt P24941). Briefly: Inhibitory activity against baculovirus expressed Cyclin dependent kinase 2-cyclinE. Type of assay: protein-complex assay.
The subject of assay [2] is A2780. Briefly: cells. Particulars: Homo sapiens.
Description: Cytotoxic activity against A2780 human ovarian carcinoma cell line
In assay [3] the target is Cyclin-dependent kinase 1/cyclin B (Homo sapiens, UniProt P06493). Briefly: Inhibitory activity against baculovirus expressed Cyclin dependent kinase 1-cyclinB. Type of assay: protein-complex assay.
The target of assay [4] is Cyclin-dependent kinase 4/cyclin D1 (Homo sapiens, UniProt P11802). Briefly: Inhibitory activity against baculovirus expressed Cyclin dependent kinase 4-cyclinD1. Type of assay: protein-complex assay.
Sequence of Cyclin-dependent kinase 4/cyclin D1 (P11802 whole entry): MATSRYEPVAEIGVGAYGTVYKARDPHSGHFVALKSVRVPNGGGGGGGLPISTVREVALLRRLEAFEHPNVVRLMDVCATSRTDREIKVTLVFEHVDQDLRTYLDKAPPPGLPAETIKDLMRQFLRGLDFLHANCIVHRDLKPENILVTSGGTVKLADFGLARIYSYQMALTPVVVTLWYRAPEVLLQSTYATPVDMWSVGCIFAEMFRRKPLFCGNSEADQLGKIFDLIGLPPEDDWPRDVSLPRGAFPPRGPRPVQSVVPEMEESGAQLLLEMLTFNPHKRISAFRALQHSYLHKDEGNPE
Sequence of Cyclin-dependent kinase 4/cyclin D1 (P24385 whole entry, further chain): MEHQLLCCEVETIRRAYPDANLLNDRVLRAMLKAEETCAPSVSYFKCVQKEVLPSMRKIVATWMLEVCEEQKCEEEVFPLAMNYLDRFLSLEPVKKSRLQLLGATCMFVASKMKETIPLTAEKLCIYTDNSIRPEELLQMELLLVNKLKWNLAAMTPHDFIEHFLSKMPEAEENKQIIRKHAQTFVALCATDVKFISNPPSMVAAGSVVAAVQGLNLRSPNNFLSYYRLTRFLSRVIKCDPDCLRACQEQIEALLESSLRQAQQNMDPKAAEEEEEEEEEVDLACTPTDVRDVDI

As a reminder, the IC50 is the concentration that inhibits the measured activity by half. As for `CC(=O)Nc1ncc(SCc2nnsc2Cl)s1`, in assay [1], the IC50 was above 1000 nM. `CC(=O)Nc1ncc(SCC2CCCCC2)s1` registered an IC50 in assay [1] above 1000 nM.

In the case of `CC(=O)Nc1ncc(SCCOc2ccccc2)s1`, in assay [1], the IC50 was above 1000 nM. `CCNC(=O)Nc1ncc(SCc2ncc(C(C)(C)C)o2)s1`: the half-maximal inhibitory concentration (IC50) in assay [2] is 120 nM; in assay [1] it was 50 nM. For the molecule `CC(=O)Nc1ncc(SCCc2cccc3ccccc23)s1`, the IC50 in assay [1] was above 1000 nM. Same read-out and setting: the result for `CC(=O)Nc1nc(CSc2cnc(NC(C)=O)s2)cs1` reads above 1000 nM. Consider `CC(=O)Nc1ncc(SCc2ncc(C(C)(C)C)o2)s1`, for which the IC50 stood at 40 nM in assay [3], 5 nM in assay [1] and 690 nM in assay [4]. `COC(=O)c1ccc(CSc2cnc(NC(C)=O)s2)o1` gave an IC50 in assay [1] above 1000 nM. `CC(=O)Nc1ncc(SCC(C)C)s1` yielded an IC50 in assay [1] above 1000 nM.

Regarding `CC(=O)Nc1ncc(SCc2ncc(-c3ccccc3)o2)s1`, the half-inhibitory concentration (IC50) in assay [1] is 350 nM; in assay [4], 4510 nM. The molecule `CC(C)C(=O)N(C)c1ncc(SCc2ncc(C(C)(C)C)o2)s1` came in with a half-inhibitory concentration (IC50) in assay [1] above 25000 nM. Turning to `CC(C)C(=O)Nc1ncc(S(=O)(=O)Cc2ncc(C(C)(C)C)o2)s1`, the IC50 in assay [3] was above 250 nM; in assay [1] it was 250 nM. For `CC(C)C(=O)Nc1ncc([S+]([O-])Cc2ncc(C(C)(C)C)o2)s1` (centres undefined), the IC50 in assay [3] is 140 nM; in assay [1], 140 nM; in assay [4], above 25000 nM. In turn, `CC(=O)Nc1ncc(SCc2c(C)noc2C)s1` yielded an IC50 in assay [1] above 1000 nM. Same read-out and setting: the same measure for `CC(C)(C)c1ncc(CSc2cnc(NC(=O)Cc3ccccc3)s2)o1`: 3 nM. Regarding `CC(=O)Nc1ncc(SCc2ncc(C)o2)s1`, the values for the half-maximal inhibitory concentration (IC50) in assay [1] and in assay [4] were 90 nM and 5160 nM, respectively. On to `CC(=O)Nc1ncc(SCC(=O)OCc2ccccc2)s1`, for which the IC50 in assay [3] is 2380 nM; in assay [1], 340 nM; in assay [4], 19100 nM. Molecule `CC(=O)Nc1ncc(SCc2cccnc2)s1` registered an IC50 in assay [1] of 680 nM. Molecule `CCOC(=O)CCCCCSc1cnc(NC(C)=O)s1` yielded an IC50 in assay [1] above 1000 nM. In the case of `CC(C)(C)c1cnc(CSc2cnc(NS(=O)(=O)c3ccccc3)s2)o1`, the figures for the IC50 in assay [2] and in assay [1] were 2860 nM and 4280 nM, respectively.

As to `CC(=O)Nc1ncc(SCC(O)CC(C)(C)C)s1` (centres undefined), in assay [1], the half-maximal inhibitory concentration (IC50) is 2810 nM. The same measure, in the same setting: the same measure for `CC(=O)Nc1nnc(SCC(=O)OC(C)(C)C)s1`: above 25000 nM; for `CC(=O)Nc1cnc(SCc2ncc(C(C)(C)C)o2)s1`: above 25000 nM; for `CC(=O)Nc1ncc(SCC(=O)CC(C)(C)C)s1`: 1840 nM. As to `COCCSc1cnc(NC(C)=O)s1`, the concentration for half-maximal inhibition (IC50) in assay [1] is above 1000 nM. Turning to `CC(=O)Nc1ncc(SCC(=O)O)s1`, the half-maximal inhibitory concentration (IC50) in assay [1] was above 25000 nM. On to `CCC(CC)CSc1cnc(NC(C)=O)s1`, for which the IC50 in assay [1] is above 1000 nM. The same measure, in the same setting: the result for `CC(=O)Nc1ncc(SCc2ccccn2)s1` reads above 1000 nM; that for `CCN(C)C(=O)CSc1cnc(NC(C)=O)s1`, above 25000 nM. Same read-out and setting: the same measure for `CC(=O)Nc1ncc(SCCOC(C)(C)C)s1`: 1740 nM. Take `CC(=O)Nc1ncc(SCC(=O)OC(C)(C)C)s1`: the half-inhibitory concentration (IC50) in assay [3] turned out to be 440 nM; in assay [1], 50 nM; in assay [4] it was 5380 nM.

As for `COC(=O)C(Sc1cnc(NC(C)=O)s1)C1CCCCC1` (centres undefined), in assay [1], the IC50 was above 1000 nM.

`CC(C)(C)c1cnc(CSc2cnc(NC(=O)c3ccccc3)s2)o1`: the IC50 in assay [4] was found to be 960 nM. `CC(=O)Nc1ncc(SCc2ccncc2)s1` had a 50% inhibitory concentration (IC50) in assay [1] above 1000 nM. For `C[C@H](C(=O)Nc1ncc(SCc2ncc(C(C)(C)C)o2)s1)c1ccccc1`, it took 60 nM to reach half-maximal inhibition in assay [1] (IC50). The same measure, in the same setting: the result for `COC(=O)C(Sc1cnc(NC(C)=O)s1)c1ccccc1` (centres undefined) reads above 1000 nM. For the molecule `CC(C)(C)c1cnc(CSc2cnc(NC(=O)OCc3ccccc3)s2)o1`, the IC50 in assay [2] turned out to be 1040 nM; in assay [1], 150 nM. In the case of `CC(=O)Nc1ncc(SCc2nc(C)c(C)o2)s1`, the 50% inhibitory concentration (IC50) in assay [1] amounted to 360 nM.

Consider `CCc1coc(CSc2cnc(NC(C)=O)s2)n1`, for which the IC50 in assay [1] worked out at 200 nM. Same read-out and setting: the same measure for `CC(=O)Nc1ncc(SCCc2ccccc2)s1`: 12600 nM.
